# Source: patent US20100184676A1, “USE OF A PEPTIDE AS A THERAPEUTIC AGENT” (priority 2007, published 2010)
# Experiments:
# HepG2-2.2.15 cells = assay: Cell viability (dye uptake) in HBV assay; assay type: cell-based; conditions: peptide 10 micrograms per ml
# Procedure: (§1) HepG2-2.2.15 cells were plated in 96-well microtiter plates. After 16-24 hours the confluent monolayer of HepG2-2.2.15 cells was washed and the medium was replaced with complete medium containing test peptide—10 micrograms per ml—in duplicate. Lamivudine (3TC) was used as the positive control, while media alone was added to the cells as a negative control (virus control). Three days later the culture medium was replaced with fresh medium containing the peptide. Six days following the initial administration of the peptide, the cell culture supernatants was collected, treated with pronase and DNAse and then used in a real-time quantitative TaqMan PCR assay. The PCR-amplified HBV DNA was detected in real-time by monitoring increases in fluorescence signals that result from the exonucleolytic degradation of a quenched fluorescence probe molecule that hybridizes to the amplified HBV DNA. For each PCR amplification, a standard curve was simultaneously generated using dilutions of purified HBV DNA. Antiviral activity was calculated from the reduction in HBV DNA levels (% virus control). A novel dye uptake assay was then employed to measure cell viability, which is used to calculate toxicity (% cell control).
# CEM-SS cells = assay: Cytotoxicity (MTS cell viability) in HIV-1 experiments; conditions: peptide 10 micrograms per ml
# HIV-1IIIB = assay: HIV-1 antiviral assay (CPE reduction, MTS) in CEM-SS cells; assay type: cell-based; conditions: peptide 10 micrograms per ml, 6 days post-infection
# MRSA = conditions: 5 micrograms per ml
# A549 cells [1] = assay: Propidium iodide cell cycle assay; assay type: cell-based, human; conditions: 24 hours, peptide 10 micrograms per ml, FACS
# From the text: Disregulation of the cell cycle components may lead to tumor formation.
# [2] = system: hepatitis B virus (HBV) ayw strain; assay: HBV experimental assay system (secreted HBV DNA, TaqMan PCR); assay type: cell-based; conditions: peptide 10 micrograms per ml; six days; HBV DNA in supernatant
# Procedure: HepG2-2.2.15 is a stable cell line containing the hepatitis B virus (HBV) ayw strain genome (ATCC Cat. No. CRL-11997). Antiviral compounds blocking any late step of viral replication such as transcription, translation, pregenome encapsidation, reverse transcription, particle assembly and release can be identified and characterized using this cell line.
# as §1, with “Lamivudine (3TC) was used as the positive control, while media alone was added to the cells as a negative control (virus control).” left out, “A novel dye uptake assay was then employed to measure cell viability, which is used to calculate toxicity (% cell control).” left out
# A549 cells [3] = assay: Apoptosis induction assay (Annexin-5); assay type: cell-based, human; conditions: 24 hours
# spleen cells = assay: Th1/Th2 cytokine profiling assay; assay type: cell-based, Balb/c mice; conditions: Ovalbumin restimulation; peptide 10 micrograms per ml; 72 hours
# Streptococcus pneumoniae = assay type: cell-based; conditions: 5 micrograms per ml
# in vitro [4] = conditions: human, MRC-5 cells
# [5] = system: Human Peripheral Blood Mononuclear Cells (PBMC); assay: T cell proliferation assay (PHA, 3H-thymidine); assay type: cell-based; conditions: peptide 10 micrograms per ml, 3H-thymidine incorporation
# A549 cells [6] = assay: Apoptosis prevention assay (C2 ceramide, Annexin-5); assay type: cell-based, human; conditions: A549 cells pretreated 30 min, peptide 10 micrograms per ml
# [7] = Cell viability (dye uptake) in HBV assay; assay type: cell-based; conditions: human, HepG2-2.2.15 cells, peptide 10 micrograms per ml
# Procedure: as §1
# HCMV strain AD169 = assay: HCMV plaque reduction assay in MRC-5 cells; conditions: HCMV AD169 in MRC-5 cells; peptide 10 micrograms per ml; 7-10 days
# TNF alpha = TNF alpha production assay (LPS-stimulated macrophages, ELISA); assay type: cell-based, human; conditions: macrophages from PBMC, peptide 10 micrograms per ml, lipopolysaccharide 200 ng/ml, overnight
# From the text: Not stimulated macrophages served as negative background control.
# in vitro [8] = conditions: human, CEM-SS cells
# HUVEC = assay: Endothelial tube formation assay; assay type: cell-based, human; conditions: peptide 10 micrograms per ml, 20 hours, average tubule length
# From the text: Positive control was vehicle only.
# RAW 264.7 cells = assay: Phagocytosis assay (Fluorescein-labeled Escherichia coli); assay type: cell-based, mouse; conditions: peptide 10 micrograms per ml, flow cytometry
# [9] = system: Primary Human endothelial cells (HUVEC); assay: Endothelial cell migration assay; assay type: cell-based; conditions: peptide 10 micrograms per ml, 22 hours
# [10] = system: Human Peripheral Blood Mononuclear Cells (PBMC); assay: B cell proliferation assay (SAC plus Interleukin-2, 3H-thymidine); assay type: cell-based; conditions: peptide 10 micrograms per ml, 3H-thymidine incorporation
# Pseudomonas aeruginosa = assay type: cell-based; conditions: 5 micrograms per ml
# MRC-5 cells = conditions: human, 6 days
structure (smiles),measurement,setting,value
"Nc1ccn([C@@H]2CS[C@H](CO)O2)c(=O)n1 [3TC, Lamivudine, reference compound]",% Cell viability,HepG2-2.2.15 cells,95.8%
Cc1cn([C@H]2C[C@H](N=[N+]=[N-])[C@@H](CO)O2)c(=O)[nH]c1=O [AZT],% Cell viability,CEM-SS cells,97%
same,% CPE reduction in HIV-1 infected CEM-SS cells,HIV-1IIIB,99%
CC[C@H](C)[C@H](NC(=O)[C@H](CCC(N)=O)NC(=O)[C@H](Cc1c[nH]cn1)NC(=O)[C@H](C)NC(=O)[C@H](CC(C)C)NC(=O)[C@H](CCCCN)NC(=O)[C@H](CCC(N)=O)NC(=O)[C@@H](NC(=O)[C@@H](NC(=O)[C@@H]1CSSC[C@H](NC(=O)CNC(=O)[C@H](Cc2ccccc2)NC(=O)[C@H](CO)NC(=O)[C@H](CCCNC(=N)N)NC(=O)[C@H](CC(C)C)NC(=O)CNC(=O)[C@H](CCC(N)=O)NC(=O)[C@H](Cc2ccccc2)NC(=O)[C@H](CC(N)=O)NC(=O)[C@H](CC(N)=O)NC(=O)[C@H](CCSC)NC(=O)[C@H](CO)NC(=O)[C@H](CCC(N)=O)NC(=O)[C@H](CCCNC(=N)N)NC(=O)[C@@H](N)Cc2ccc(O)cc2)C(=O)N[C@@H](CCCNC(=N)N)C(=O)N[C@@H](Cc2ccccc2)C(=O)NCC(=O)N[C@@H]([C@@H](C)O)C(=O)N1)[C@@H](C)O)C(C)C)C(=O)N[C@@H](Cc1ccc(O)cc1)C(=O)N[C@@H](CCC(N)=O)C(=O)N[C@@H](Cc1ccccc1)C(=O)N[C@H](C(=O)N[C@@H](CC(=O)O)C(=O)N[C@@H](CCCCN)C(=O)N[C@@H](CC(=O)O)C(=O)N[C@@H](CCCCN)C(=O)N[C@@H](CC(=O)O)C(=O)N[C@@H](CC(N)=O)C(=O)N[C@H](C(=O)N[C@@H](C)C(=O)N1CCC[C@H]1C(=O)N[C@@H](CCCNC(=N)N)C(=O)N[C@@H](CO)C(=O)N[C@@H](CCCCN)C(=O)N[C@H](C(=O)N[C@@H](CO)C(=O)N1CCC[C@H]1C(=O)N[C@@H](CCC(N)=O)C(=O)NCC(=O)N[C@@H](Cc1ccc(O)cc1)C(N)=O)[C@@H](C)CC)C(C)C)[C@@H](C)O [Adrenomedullin],% inhibition,MRSA,0.0%
same,Cell cycle analysis G0/G1,A549 cells [1],57.8
same,Cell cycle analysis G2/M,A549 cells [1],9.5
same,Cell cycle analysis S,A549 cells [1],32.7
same,% inhibition of HBV replication in HEP G2 cells,[2],0.0%
same,% of induction,A549 cells [3],1.5%
same,IFNγ spleen cells; TH1 response (% of control),spleen cells,24.5 % of control
same,IL-2 spleen cells (% of control),spleen cells,0.0 % of control
same,IL-4 spleen cells; TH2 response (% of control),spleen cells,0.0 % of control
same,IL-5 spleen cells; TH2 response (% of control),spleen cells,28.1 % of control
same,TNF-a spleen cells; TH1 response (% of control),spleen cells,66.7 % of control
same,% inhibition,Streptococcus pneumoniae,0.0%
same,viability at 144 h,in vitro [4],100%
same,% of PHA induced control,[5],107.1%
same,% prevention of ceramide induced apoptosis,A549 cells [6],0.0%
same,"viability at 144 h, 10 micrograms per ml",[7],100%
same,% plaque reduction,HCMV strain AD169,0.0%
same,% of LPS induction,TNF alpha,100.9%
same,viability at 10 micrograms per ml,in vitro [8],92.9%
same,% inhibition of tube formation,HUVEC,26%
same,% of control phagocytosis,RAW 264.7 cells,108.8%
same,% inhibition of migration,[9],−34%
same,% CPE reduction in HIV-1 infected CEM-SS cells,HIV-1IIIB,0.0%
same,% of SAC/IL2 induced control,[10],111.0%
same,% inhibition,Pseudomonas aeruginosa,0.0%
"Nc1nc(O)c2ncn(COC(CO)CO)c2n1 [Ganciclovir, reference compound]",% Cell viability,MRC-5 cells,100%
same,% plaque reduction,HCMV strain AD169,100%
"CC(C)(C)NC(=O)[C@@H]1CN(Cc2cccnc2)CCN1C[C@@H](O)C[C@@H](Cc1ccccc1)C(=O)N[C@H]1c2ccccc2C[C@H]1O [Indinavir, indinavir]",% CPE reduction in HIV-1 infected CEM-SS cells,HIV-1IIIB,100%
